From PubChem BioAssay AID200 (DTP/NCI, 2004)
Several values for one entry are separate records, joined by “and”; a condition that tells them apart may be missing. Identical values can stand only once. Inconclusive results and toxic doses are left out.

Test system: B6C3F1 mice, B16 melanoma ip, median survival T/C
Assay: NCI In Vivo Anticancer Drug Screen. Data for tumor model B16 Melanoma (intraperitoneal) in B6C3F1 mice
Conditions: endpoint: median survival time, schedule: Q01DX009 (ip), higher = longer survival
Procedure: The antitumor activity of compounds was measured in mice bearing transplantable tumors. Survival or tumor size were measured and the results are expressed as the measurement made in the treated group (T) divided by the measurement made in the vehicle treated control group (C). The tumor model used in this assay is B16 Melanoma (intraperitoneal) in B6C3F1 mice

[1] = dose: 12.5 mg/kg/injection, vehicle: Klucel (hydroxypropylcellulose) (HPC)
[2] = dose: 25.0 mg/kg/injection, vehicle: Klucel (hydroxypropylcellulose) (HPC)
[3] = dose: 50.0 mg/kg/injection, vehicle: Klucel (hydroxypropylcellulose) (HPC)
[4] = dose: 100.0 mg/kg/injection, vehicle: Klucel (hydroxypropylcellulose) (HPC)
[5] = dose: 25.0 mg/kg/injection, vehicle: saline
[6] = dose: 50.0 mg/kg/injection, vehicle: saline
[7] = dose: 100.0 mg/kg/injection, vehicle: saline
[8] = dose: 200.0 mg/kg/injection, vehicle: saline
[9] = dose: 400.0 mg/kg/injection, vehicle: saline
[10] = dose: 6.25 mg/kg/injection, vehicle: saline
[11] = dose: 3.12 mg/kg/injection, vehicle: saline with Tween-80
[12] = dose: 6.25 mg/kg/injection, vehicle: saline with Tween-80
[13] = dose: 12.5 mg/kg/injection, vehicle: saline with Tween-80
[14] = dose: 25.0 mg/kg/injection, vehicle: saline with Tween-80
[15] = dose: 50.0 mg/kg/injection, vehicle: saline with Tween-80
[16] = dose: 100.0 mg/kg/injection, vehicle: saline with Tween-80
[17] = dose: 200.0 mg/kg/injection, vehicle: saline with Tween-80

`C[C@]12CCC(=O)C(O)=C1CC[C@@H]1[C@@H]2CC[C@]2(C)C(=O)CC[C@@H]12` was tested, and the T/C [1] was 88 % of control and 95 % of control, the T/C [2] was 97 % of control and the T/C [3] was 97 % of control and 102 % of control. For the same molecule, the T/C [4] was 92 % of control and 98 % of control, the T/C (dose: 200.0 mg/kg/injection, vehicle: Klucel (hydroxypropylcellulose) (HPC)) was 94 % of control and 95 % of control and the T/C (dose: 400.0 mg/kg/injection, vehicle: Klucel (hydroxypropylcellulose) (HPC)) was 87 % of control and 93 % of control.

In the case of `CCOC(OCC)C(=O)OCC(=O)[C@]1(O)Cc2c(O)c3c(c(O)c2[C@@H](OC2CC(N)C(O)C(C)O2)C1)C(=O)c1c(OC)cccc1C3=O` (stereo partly drawn), the T/C (dose: 0.12 mg/kg/injection, vehicle: water) is reported as 155 % of control, the T/C (dose: 0.13 mg/kg/injection, vehicle: water) is reported as 165 % of control and the T/C (dose: 0.25 mg/kg/injection, vehicle: water) is reported as 177 % of control and 182 % of control. For the same molecule, the T/C (dose: 0.5 mg/kg/injection, vehicle: water) was 208 % of control and 285 % of control, the T/C (dose: 1.0 mg/kg/injection, vehicle: water) was 189 % of control and 285 % of control and the T/C (dose: 2.0 mg/kg/injection, vehicle: water) was 212 % of control and 285 % of control. For the same molecule, the T/C (dose: 4.0 mg/kg/injection, vehicle: water) was 285 % of control.

With `COC(C(=O)C(O)C(C)O)C1CC2C=C3C=C(OC4CC(OC5CC(O)C(OC)C(C)O5)C(OC(C)=O)C(C)O4)C(C)C(=O)C3=C(O)C2=C(O)C1OC1CC(OC2CC(OC3CC(C)(O)C(OC(=O)C(C)C)C(C)O3)C(O)C(C)O2)C(O)C(C)O1` (stereo not drawn) the T/C (dose: 62.5 micrograms/kg/injection, vehicle: saline) was 155 % of control.

With `NC(=O)CCC(N)C(=O)O` (stereo not drawn) the T/C [5] was 105 % of control, the T/C [6] was 108 % of control and the T/C [7] was 103 % of control. For the same molecule, the T/C [8] was 100 % of control and the T/C [9] was 108 % of control.

`COc1ccc(C(Nc2ccccc2)C(=O)c2ccccc2)cc1` (stereo not drawn) was tested, and the T/C (dose: 6.25 mg/kg/injection, vehicle: Klucel (hydroxypropylcellulose) (HPC)) was 102 % of control, the T/C [1] was 96 % of control and the T/C [2] was 96 % of control.

`O=[Te]=O` was tested, and the T/C (dose: 3.12 mg/kg/injection, vehicle: saline) was 110 % of control and the T/C [10] was 109 % of control.

With `COC1=CC(=O)c2c(O)cc(OC)c(O)c2C1=O` the T/C (dose: 1.25 mg/kg/injection, vehicle: saline with Tween-80) was 105 % of control, the T/C (dose: 2.5 mg/kg/injection, vehicle: saline with Tween-80) was 121 % of control and the T/C (dose: 5.0 mg/kg/injection, vehicle: saline with Tween-80) was 121 % of control. The T/C (dose: 10.0 mg/kg/injection, vehicle: saline with Tween-80) was 121 % of control.

With `CCc1nc(N)nc(N)c1-c1ccc(Cl)c([N+](=O)[O-])c1` the T/C (dose: 1.56 mg/kg/injection, vehicle: saline with Tween-80) was 106 % of control, the T/C [11] was 105 % of control and the T/C (dose: 3.25 mg/kg/injection, vehicle: saline with Tween-80) was 100 % of control. For the same molecule, the T/C [12] was 111 % of control, the T/C (dose: 7.5 mg/kg/injection, vehicle: saline with Tween-80) was 101 % of control and the T/C (dose: 15.0 mg/kg/injection, vehicle: saline with Tween-80) was 103 % of control. The T/C (dose: 30.0 mg/kg/injection, vehicle: saline with Tween-80) was 104 % of control and the T/C (dose: 60.0 mg/kg/injection, vehicle: saline with Tween-80) was 114 % of control.

For `O=C(NC1CCCCC1)OCc1c(COC(=O)NC2CCCCC2)c(-c2ccc(Cl)c(Cl)c2)n2c1CCC2`, the T/C [13] was 190 % of control, the T/C [14] was 162 % of control and 222 % of control and the T/C [15] was 199 % of control and 235 % of control. For the same molecule, the T/C [16] was 203 % of control and 316 % of control, the T/C [17] was 181 % of control and 214 % of control and the T/C (dose: 400.0 mg/kg/injection, vehicle: saline with Tween-80) was 112 % of control.

With `CN(C)P(=O)(Oc1ccccc1)N(C)C` the T/C [13] was 114 % of control and 98 % of control, the T/C [14] was 100 % of control and 101 % of control and the T/C [15] was 98 % of control and 99 % of control. The T/C [16] was 110 % of control and 99 % of control and the T/C [17] was 101 % of control and 103 % of control.

With `O=c1ccc(N=Nc2ccccc2)ccc1Cl` the T/C (dose: 0.25 mg/kg/injection, vehicle: Klucel (hydroxypropylcellulose) (HPC)) was 98 % of control, the T/C (dose: 0.5 mg/kg/injection, vehicle: Klucel (hydroxypropylcellulose) (HPC)) was 93 % of control and the T/C (dose: 1.0 mg/kg/injection, vehicle: Klucel (hydroxypropylcellulose) (HPC)) was 100 % of control.

For `COC(=O)c1[nH]c(=O)[nH]c(=O)c1F`, the T/C [6] was 98 % of control, the T/C [7] was 94 % of control and the T/C [8] was 100 % of control.

For `CC(C)(C)SCC(NC(=O)OCC1c2ccccc2-c2ccccc21)C(=O)O` (stereo not drawn), the T/C [2] was 91 % of control, the T/C [3] was 97 % of control and the T/C [4] was 91 % of control and 92 % of control.

`S=C(S)NN1CCOCC1` was tested, and the T/C [7] was 98 % of control, the T/C [8] was 99 % of control and the T/C [9] was 96 % of control.

In the case of `CNC(=O)Oc1ccc[nH]c1=O`, the T/C (dose: 16.0 mg/kg/injection, vehicle: saline with Tween-80) is reported as 101 % of control, the T/C (dose: 32.0 mg/kg/injection, vehicle: saline with Tween-80) is reported as 100 % of control and the T/C (dose: 64.0 mg/kg/injection, vehicle: saline with Tween-80) is reported as 101 % of control. The T/C (dose: 128.0 mg/kg/injection, vehicle: saline with Tween-80) was 100 % of control and the T/C (dose: 256.0 mg/kg/injection, vehicle: saline with Tween-80) was 95 % of control.

With `N#CCS(=O)(=O)c1cccc[n+]1[O-]` the T/C [14] was 102 % of control, the T/C [15] was 101 % of control and the T/C [16] was 117 % of control. For the same molecule, the T/C [17] was 121 % of control.

In the case of `CN1c2c(nc(N)[nH]c2=O)NCC1CCNc1ccc(C(=O)NC(CCC(=O)O)C(=O)O)cc1` (stereo not drawn), the T/C (dose: 50.0 mg/kg/injection, vehicle: sodium bicarbonate) is reported as 105 % of control and the T/C (dose: 100.0 mg/kg/injection, vehicle: sodium bicarbonate) is reported as 114 % of control.

In the case of `O=NNc1ccc(Br)cn1`, the T/C (dose: 1.56 mg/kg/injection, vehicle: water) is reported as 110 % of control and 112 % of control, the T/C (dose: 3.12 mg/kg/injection, vehicle: water) is reported as 119 % of control and 124 % of control and the T/C (dose: 12.5 mg/kg/injection, vehicle: water) is reported as 158 % of control and 170 % of control.

For `CCCOC(=O)c1nc(N(CC2CCCCC2)C(=O)NC)sc1/N=C/c1ccccc1`, the T/C (dose: 9.0 mg/kg/injection, vehicle: saline with Tween-80) was 96 % of control, the T/C (dose: 18.0 mg/kg/injection, vehicle: saline with Tween-80) was 86 % of control and the T/C (dose: 36.0 mg/kg/injection, vehicle: saline with Tween-80) was 86 % of control.

`CCCCCCCCCCCCCC#CC(=O)O` was tested, and the T/C [11] was 110 % of control and 94 % of control, the T/C [12] was 112 % of control and 94 % of control and the T/C [13] was 92 % of control and 105 % of control. For the same molecule, the T/C [14] was 89 % of control.

`COc1ccc(/C(C#N)=C2\OC(=O)c3ccccc32)cc1OC` was tested, and the T/C [11] was 95 % of control, the T/C [12] was 93 % of control and the T/C [13] was 107 % of control. The T/C [14] was 88 % of control, the T/C [15] was 91 % of control and the T/C [17] was 88 % of control.

In the case of `Cc1ncc(O)c(CO)c1O`, the T/C (dose: 0.78 mg/kg/injection, vehicle: saline) is reported as 102 % of control, the T/C (dose: 1.56 mg/kg/injection, vehicle: saline) is reported as 102 % of control and the T/C (dose: 3.13 mg/kg/injection, vehicle: saline) is reported as 99 % of control. The T/C [10] was 105 % of control, the T/C (dose: 12.5 mg/kg/injection, vehicle: saline) was 101 % of control and the T/C [5] was 91 % of control. For the same molecule, the T/C [6] was 96 % of control.
